Data: publication PMC8464905, “Novel c-Jun N-Terminal Kinase (JNK) Inhibitors with an 11H-Indeno[1,2-b]quinoxalin-11-one Scaffold” (Molecules, 2021)
Like-named read-outs stand apart in the source and are kept apart here.

Legend:
JNK1 [1] = target: T1, JNK1 (Homo sapiens, UniProt P45983); assay: KINOMEscan Kd determination, JNK1; conditions: duplicate, mean, N.B. = no binding at < 30 μM
T1 construct: purchased Eurofins Pharma Discovery (KINOMEscan)
Protocol: (§1) Selected compounds were submitted for dissociation constant (Kd) determination using KINOMEscan (Eurofins Pharma Discovery, San Diego, CA, USA), as described previously. […] Primary screening at fixed concentrations of compounds was performed in duplicate.

JNK2 [2] = target: T2, JNK2 (Homo sapiens, UniProt P45984); assay: KINOMEscan Kd determination, JNK2; conditions: duplicate, mean, N.B. = no binding at < 30 μM
T2 construct: purchased Eurofins Pharma Discovery (KINOMEscan)
Protocol: as §1

JNK3 [3] = target: T3, JNK3 (Homo sapiens, UniProt P53779); assay: KINOMEscan Kd determination, JNK3; conditions: duplicate, mean, N.B. = no binding at < 30 μM
T3 construct: purchased Eurofins Pharma Discovery (KINOMEscan)
Protocol: as §1

JNK1-3 [4] = assay: KINOMEscan binding, statements for all three JNK isoforms; conditions: summary of Table 3
Protocol: as §1

[5] = CellTiter-Glo cytotoxicity in THP-1Blue cells; type: cell-based, human; conditions: human, THP-1Blue cells; 24-h incubation, up to 50 μM; read-out: THP-1Blue Cell Cytotoxicity IC50
Protocol: (§2) All cells were cultured at 37 °C in a humidified atmosphere containing 5% CO2. THP1-Blue cells obtained from InvivoGen (San Diego, CA, USA) were cultured in RPMI 1640 medium (Mediatech Inc., Herndon, VA, USA) supplemented with 10% (v/v) fetal bovine serum (FBS), 100 μg/mL streptomycin, 100 U/mL penicillin, 100 μg/mL phleomycin (Zeocin), and 10 μg/mL blasticidin S. Human monocyte-macrophage MonoMac-6 cells (Deutsche Sammlung von Mikroorganismen und Zellkulturen GmbH, Braunschweig, Germany) were grown in RPMI 1640 medium supplemented with 10% (v/v) FBS, 10 μg/mL bovine insulin, 100 μg/mL streptomycin, and 100 U/mL penicillin.
(§3) Cytotoxicity was analyzed with a CellTiter-Glo Luminescent Cell Viability Assay Kit from Promega (Madison, WI, USA), according to the manufacturer’s protocol. Cells were treated with compounds under investigation and incubated for 24 h. After treatment, the cells were equilibrated to room temperature for 30 min, substrate was added, and the samples were analyzed with a Fluoroscan Ascent FL (Thermo Fisher Scientific, Waltham, MA, USA). The IC50 values were calculated by plotting percentage inhibition against the logarithm of inhibitor concentration (at least five points).

[6] = CellTiter-Glo cytotoxicity in MonoMac-6 cells; type: cell-based, human; conditions: human, MonoMac-6 cells; 24-h incubation, up to 50 μM; read-out: MonoMac-6 Cell Cytotoxicity IC50
Protocol: as §2, §3

NF-κB/AP-1 = assay: LPS-induced NF-κB/AP-1 alkaline phosphatase reporter assay in THP1-Blue cells; type: cell-based; conditions: Homo sapiens; 30 min pretreatment, 250 ng/mL LPS for 24 h; read-out: THP-1Blue Cell NF-κB/AP-1 IC50
Protocol: as §2
Activation of AP-1/NF-κB was measured using an alkaline phosphatase reporter gene assay in THP1-Blue cells. Human monocytic THP-1 Blue cells are stably transfected with a secreted embryonic alkaline phosphatase gene that is under the control of a promoter inducible by NF-κB/AP-1. THP1-Blue cells (2 × 10^5 cells/well) were pretreated with test compound or DMSO for 30 min, followed by addition of 250 ng/mL lipopolysaccharide (LPS) for 24 h, and alkaline phosphatase activity was measured in cell supernatants using QUANTI-Blue mix (InvivoGen) as absorbance at 655 nm and compared with positive control samples (LPS). For selected compounds, the concentrations of inhibitor that caused 50% inhibition of the NF-κB reporter activity (IC50) were calculated.

IL-6 [7] = assay: LPS-induced IL-6 production in MonoMac-6 cells (ELISA); type: cell-based; conditions: Homo sapiens, MONO-MAC-6; 30 min pretreatment, 250 ng/mL LPS for 24 h; read-out: MonoMac-6 Cell IL-6 IC50
Protocol: as §2
A human IL-6 ELISA kit (BD Biosciences, San Jose, CA, USA) was measure IL-6 production. MonoMac-6 cells were plated in 96-well plates at a density of 2 × 10^5 cells/well in culture medium supplemented with 3% (v/v) endotoxin-free FBS. The cells were pretreated with test compound or DMSO for 30 min, followed by addition of 250 ng/mL LPS for 24 h. IC50 values for IL-6 production were calculated by plotting percentage inhibition against the logarithm of inhibitor concentration (at least five points).

phospho-c-Jun (Ser63) = assay: LPS-induced c-Jun (Ser63) phosphorylation in MonoMac-6 cells (Western blotting); type: cell-based, human; conditions: 30 min pretreatment, LPS 250 ng/mL 30 min
Protocol: MonoMac-6 monocytic cells were pretreated with different concentrations of the compounds under investigation for 30 min and treated with LPS (250 ng/mL) or vehicle for another 30 min. Cells were washed twice with Hanks’ balanced salt solution, and cell lysates were prepared using lysis buffer from the JNK kinase assay kit (Cell Signaling Technology, Danvers, MA). Cell lysates (from 5 × 10^6 cells) were separated on ExpressPlus 4–20% PAGE Gels (GenScript, Piscataway, NJ, USA) using TRIS-MOPS running buffer (GenScript) and transferred to nitrocellulose membranes. The blots were probed with antibodies against c-Jun, phospho-c-Jun (Ser63), and total c-Jun (Cell Signaling Technology, Danvers, MA, USA), followed by horseradish peroxidase-conjugated secondary antibody (Cell Signaling Technology). The blots were developed using SuperSignal West Femto chemiluminescent substrate (Thermo Fisher Scientific) and visualized with a FluorChem FC2 imaging system (Alpha Innotech Corporation, San Leandro, CA, USA). Quantitation of the chemiluminescent signal was performed using AlphaView software (ver. 3.0; Alpha Innotech).

Water solubility = type: physicochemical
JNK1 [8] = target: T1, JNK1; conditions: previously identified inhibitors; ref [35],[36]; cited from earlier work
JNK2 [9] = target: T2, JNK2; conditions: previously identified inhibitors; ref [35],[36]; cited from earlier work
JNK3 [10] = target: T3, JNK3; conditions: previously identified inhibitors; ref [35],[36]; cited from earlier work
MonoMac-6 cells = assay: CellTiter-Glo cytotoxicity in MonoMac-6 cells; type: cell-based, human; conditions: 24-h incubation, up to 50 μM
Protocol: as §2, §3

THP-1Blue cells = assay: CellTiter-Glo cytotoxicity in THP-1Blue cells; type: cell-based, human; conditions: 24-h incubation, up to 50 μM
Protocol: as §2, §3

IL-6 [11] = system: IL-6; parameters: method as in PMID 22434859; conditions: LPS-induced; ref [35]; read-out: MonoMac-6 Cell IL-6 IC50; cited from earlier work
JNK1 [12] = target: T1, JNK1; parameters: method as in PMID 27027242, PMID 11717429, PMID 16759099, PMID 21666839; conditions: Figure 1; ref [25],[32],[33],[34]; cited from earlier work
JNK3 [13] = target: T3, JNK3; parameters: method as in PMID 27027242, PMID 11717429, PMID 16759099, PMID 21666839; conditions: Figure 1; ref [25],[32],[33],[34]; cited from earlier work
JNK1-3 [14] = system: JNK1-3; parameters: method as in PMID 27027242, PMID 11717429, PMID 16759099, PMID 21666839; conditions: Figure 1; ref [25],[32],[33],[34]; cited from earlier work

T2 sequence (P45984 whole entry): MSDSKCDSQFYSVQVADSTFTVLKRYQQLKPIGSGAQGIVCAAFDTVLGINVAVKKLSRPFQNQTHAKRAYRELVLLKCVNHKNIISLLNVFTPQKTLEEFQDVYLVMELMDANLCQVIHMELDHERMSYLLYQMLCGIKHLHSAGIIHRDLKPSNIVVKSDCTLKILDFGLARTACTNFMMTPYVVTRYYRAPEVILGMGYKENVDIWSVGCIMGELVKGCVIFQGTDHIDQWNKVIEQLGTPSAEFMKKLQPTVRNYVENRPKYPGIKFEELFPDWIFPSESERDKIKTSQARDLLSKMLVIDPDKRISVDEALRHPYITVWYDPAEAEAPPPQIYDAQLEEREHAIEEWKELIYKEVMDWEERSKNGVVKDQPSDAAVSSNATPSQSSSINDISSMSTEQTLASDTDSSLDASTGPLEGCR
T3 sequence (P53779 whole entry): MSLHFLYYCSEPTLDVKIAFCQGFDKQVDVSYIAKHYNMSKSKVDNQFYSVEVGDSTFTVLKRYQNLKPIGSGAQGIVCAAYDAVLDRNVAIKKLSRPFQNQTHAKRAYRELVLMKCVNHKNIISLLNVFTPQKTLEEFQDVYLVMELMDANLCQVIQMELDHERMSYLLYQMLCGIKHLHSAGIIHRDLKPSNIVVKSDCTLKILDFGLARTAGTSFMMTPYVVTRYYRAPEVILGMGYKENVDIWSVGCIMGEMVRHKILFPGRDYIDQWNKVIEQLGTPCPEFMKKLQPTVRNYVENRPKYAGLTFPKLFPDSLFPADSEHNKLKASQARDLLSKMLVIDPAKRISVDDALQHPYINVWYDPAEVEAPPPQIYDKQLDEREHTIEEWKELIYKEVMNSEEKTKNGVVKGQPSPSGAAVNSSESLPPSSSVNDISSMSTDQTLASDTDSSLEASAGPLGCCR
T1 sequence (P45983 whole entry): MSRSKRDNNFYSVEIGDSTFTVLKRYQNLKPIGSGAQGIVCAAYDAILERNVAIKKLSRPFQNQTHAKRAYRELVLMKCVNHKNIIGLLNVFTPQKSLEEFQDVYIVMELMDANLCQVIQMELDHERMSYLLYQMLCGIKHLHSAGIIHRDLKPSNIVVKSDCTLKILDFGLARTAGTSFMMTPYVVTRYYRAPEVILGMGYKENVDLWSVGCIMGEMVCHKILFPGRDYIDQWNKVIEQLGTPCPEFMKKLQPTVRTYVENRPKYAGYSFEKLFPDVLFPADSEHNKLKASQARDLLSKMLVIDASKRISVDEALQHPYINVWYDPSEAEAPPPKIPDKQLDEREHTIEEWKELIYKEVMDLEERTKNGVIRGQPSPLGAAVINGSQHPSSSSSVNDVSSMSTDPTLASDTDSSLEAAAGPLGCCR

| Compound | Kd (JNK1 [1]) | Kd (JNK2 [2]) | Kd (JNK3 [3]) | Binding affinity (Kd) for all three JNK isoforms, in words (JNK1-3 [4]) | IC50 at 24 h [5] | IC50 at 24 h [6] | IC50 (NF-κB/AP-1) | melting point | Kd (JNK1 [8]) | Kd (JNK2 [9]) | Kd (JNK3 [10]) | also measured |
| --- | --- | --- | --- | --- | --- | --- | --- | --- | --- | --- | --- | --- |
| ON=C1c2ccccc2-c2nc3c(CN4CCOCC4)cccc3nc21 [Compound 4m, 6-(Morpholinomethyl)-11H-indeno[1,2-b]quinoxalin-11-one Oxime] | 1100 ± 100 nM | 880 ± 100 nM | 910 ± 300 nM | relatively high binding affinity | > 50000 nM | > 50000 nM | 100 ± 50 nM | 210 to 211 °C | – | – | – | IC50 (IL-6 [7]): 800 ± 100 nM; Effect on LPS-induced c-Jun (Ser63) phosphorylation (phospho-c-Jun (Ser63)): inhibited c-Jun phosphorylation; Water solubility (Water solubility): high water solubility |
| O=[N+]([O-])c1ccc2nc3c(nc2c1)-c1ccccc1/C3=N/O [B] | – | – | – | – | – | – | – | – | 6000 nM | 12000 nM | 4300 nM | – |
| ON=C1c2ccccc2-c2nc3c(Br)cc(C(F)(F)F)cc3nc21 [Compound 4h, 6-Bromo-8-(trifluoromethyl)-11H-indeno[1,2-b]quinoxalin-11-one Oxime] | > 30000 nM | > 30000 nM | > 30000 nM | inactive | > 50000 nM | 29000 ± 2500 nM | 2500 ± 600 nM | 236 to 237 °C | – | – | – | MonoMac-6 Cell Cytotoxicity IC50 (MonoMac-6 cells): cytotoxic |
| ON=C1c2ccccc2-c2nc3cc(F)c(F)cc3nc21 [Compound 4f, 7,8-Difluoro-11H-indeno[1,2-b]quinoxalin-11-one Oxime] | 170 ± 40 nM | > 30000 nM | 520 ± 300 nM | – | > 50000 nM | > 50000 nM | 1100 ± 400 nM | 250 to 251 °C | – | – | – | JNK2 Kd (JNK2 [2]): did not bind; IC50 (IL-6 [7]): 14000 ± 2800 nM; Effect on LPS-induced c-Jun (Ser63) phosphorylation (phospho-c-Jun (Ser63)): inhibited c-Jun phosphorylation |
| Cc1cc(Br)cc2nc3c(nc12)-c1ccccc1C3=NO [Compound 4c, 6-Methyl-8-bromo-11H-indeno[1,2-b]quinoxalin-11-one Oxime] | > 30000 nM | > 30000 nM | > 30000 nM | inactive | 37500 ± 1700 nM | 14600 ± 1200 nM | – | 255 to 256 °C | – | – | – | THP-1Blue Cell Cytotoxicity IC50 (THP-1Blue cells): exhibited cytotoxicity; MonoMac-6 Cell Cytotoxicity IC50 (MonoMac-6 cells): cytotoxic |
| ON=C1c2ccccc2-c2nc3ccccc3nc21 [IQ-1, 11H-indeno[1,2-b]quinoxalin-11-one oxime] | – | – | – | – | – | – | – | – | – | – | – | IC50 (IL-6 [11]): 3400 ± 800 nM |
| Cc1ccc2nc3c(nc2c1)-c1ccccc1/C3=N/O [D] | – | – | – | – | – | – | – | – | 700 nM | 800 nM | 300 nM | – |
| O/N=C1/c2ccccc2-c2nc3ccc(Cl)cc3nc21 [C] | – | – | – | – | – | – | – | – | 1100 nM | 21500 nM | 700 nM | – |
| Cc1ccc(-c2ncn(-c3ccc(Nc4nccc(-c5cccc(N6CCOCC6)c5)n4)cc3)n2)cn1 [SR-3306] | – | – | – | – | – | – | – | – | – | – | – | IC50 (JNK1 [12]): 159 nM; IC50 (JNK3 [13]): 67 nM |
| SP600125 | – | – | – | – | – | – | – | – | – | – | – | IC50 (JNK1-3 [14]): 40 to 90 nM |
